Experiments:
[1] = system: alcohol dehydrogenase from Vanilla planifolia embryo culture (vanillyl alcohol dehydrogenase, VAD); test: Substrate specificity of vanillyl alcohol dehydrogenase (VAD); format: biochemical; conditions: for Activity with the compound as substrate, NADH: cofactor NADH; for Activity with the compound as substrate, NADPH: cofactor NADPH
Description: We have purified and characterized the activity of VAD that catalyze the reduction of vanillin to vanillyl alcohol. The enzyme was identified as an NADH or NADPH-dependent alcohol dehydrogenase. The purification protocol was as set forth below.
Crude enzyme extract: Tissue was homogenized in 0.05 M actetate-Na buffer pH 4.0 (in proportion, 1 g of the tissue and 5 ml of the buffer) in an ice bath, using Polytrone homogenizer, at 20,000 revolutions of the blade per min. The homogenate was centrifuged at 13000 g for 15 min at 4° C. and the supernatant served as the crude enzyme source.
Ammonium sulfate fractionation and molecular sieving: Crude enzyme extract (100 ml) was supplied with ammonium sulfate in an ice bath up to 60% of saturation (44.4 g of Ammonium sulphate per 100 ml). The precipitate was centrifuged and discarded. The supernatant was supplied with ammonium sulfate up to 90% of saturation (total 64.6 g per 100 ml of crude extract). The precipitate was collected (10 min centrifugation at 10,000 g), dissolved in 7 ml of extraction buffer and subjected to molecular sieving at Sephacryl S-300 High Load Column (LKB Pharmacia) 2.6×60 cm, in 0.1 M pH 4.0 acetate-Na buffer. The flow rate was adjusted to 1 ml/min and 5 ml fractions were collected. The protein elution profile was monitored at 280 nm. Five fractions (of a total of 50) containing dehydrogenase activity (130–155 ml of the column eluate) were collected.
The column was developed with 0.5 M Tris/HCL buffer pH 7.4 in 0.0–1.0 M NaCl gradient (total gradient volume—70 ml) and 2.5 ml fractions were collected. Vanillyl alcohol dehydrogenase was released from the column between 0.3–0.4 M NaCl. Fractions containing VAD activity were dialysed overnight against 0.05 M caetate-Na buffer pH 4.0 and concentrated up to 50 times using Minicon concentrating filters (Amicon). […]

[2] = system: Vanilla embryo culture; test: Feeding vanilla embryo culture with vanillin precursors, HPLC analysis of metabolites; format: cell-based, Vanilla planifolia; conditions: for CA (p-coumaric acid) content of culture / HBA (p-hydroxybenzyl alcohol) content of culture / PRO-ALD (3,4-dihydroxybenzaldehyde) content of culture / VN (vanillin) content of culture / VN ALC (vanillyl alcohol) content of culture: precursor fed at 1 mM
Text: We derived a scheme for the vanillin biosynthetic pathway by analysis of metabolites in cultured embryos and by experiments with feeding of precursors and intermediates. This scheme is shown in FIG. 1 and the experiments are described below.
Embryo cultures of Vanilla planifolia were established as described in Example 1. The procedures used to extract phenolics from the cultured embryo cells and to analyze the extracts by high pressure liquid chromatography (HPLC) were as described generally by Havkin-Frenkel et al., Plant Cell, Tissue and Organ Culture 45: 133–136 (1996).
In the extraction procedure, 3 ml of 0.05 M sodium acetate buffer, pH 5.5, was added to about 1 gram of fresh culture. Samples were placed in boiling water for three minutes, then chilled. The cells were next homogenized in a Polytron blender for 1 minute at medium speed. A β-glucosidase solution was added to the homogenized cells to give a final concentration of 0.2%. Each sample was then incubated at 37° C. for 5 hr. Next, 17 ml of 95% ethanol was added, after which incubation at 37° C. was continued for an additional 24 hrs. The extract was then filtered and the ethanol evaporated. The filtrate was extracted twice using ethyl acetate, then extracted twice with ethyl acetate acidified to pH 3 with HCl. The extracts were combined and the ethyl acetate evaporated. The residue was dissolved in 1 ml of acidified methanol and filtered with a 0.45 μm syringe filter for HPLC analysis.
Extractions of metabolites from culture medium was similar to the cell extraction protocol. Five ml of spent medium was incubated in a β-glucosidase solution at 37° C. for 24 hrs. The medium was then extracted with ethyl acetate and the organic portions combined and evaporated, as for the cell extracts.
Metabolite levels were measured with a Hewlett Packard 1090L or a Waters HPLC with a UV detector at 280 nm. The Waters HPLC was also equipped with a diode array detector to confirm the identities of the various intermediates, and the identities of the various intermediates were further confirmed by mass spectrometry. The column was a Supelco C-18 DB column of dimensions 250 mm×4.6 mm and a particle size of 5 μm. The mobile phase contained methanol and water, each of which was acidified with 1.25% acetic acid. The flow rate was 1 ml/min, with a solvent gradient as follows: […]
Results of selected experiments in which precursors or elicitors were added to vanilla cultures are set forth below. These experiments were performed in accordance with the procedures set forth in Examples 1–4.

[3] = system: p-hydroxybenzaldehyde synthase; test: Substrate specificity of p-hydroxybenzaldehyde synthase (chain shortening enzyme), crude enzyme; format: biochemical, Vanilla planifolia; conditions: crude enzyme, HPLC detection of product
Description: Sterile plant material (2 g) 2–3 weeks after subculture, was homogenized in a cooled Potter glass homogenizer with 4 ml of 0.1 M HEPES buffer, pH 8.0, containing 10 mM DTT. The homogenate was next centrifuged at 4° C. at 15.000× g for 15 min. Resultant supernatant (4 ml) was filtered through Sephadex G-25 column (void volume 3–4 ml.) Equilibrated with Tris/HCL buffer pH7, containing 10 mM DTT. The column was washed with the same buffer and 2 ml fraction following the void volume was collected. This fraction was used as the crude enzyme source.
The p-HO-aldehyde synthase activity was determined in the following mixture:
crude enzyme extract: 10 μl
(substrate=1.8 mM p-coumarate in 0.1 M Tris/HCl, pH 8.0 with 10 mM DTT)
The mixture was incubated for 10–60 min (for longer incubation times, the activity was not proportional with time) at 35° C. and next, the reaction stopped by addition of 200 μl of acidified methanol (10% acetic acid in methanol). The slurry was passed through 0.45 μm filter and the filtrate (50 μl) injected into HPLC Bio-sil 18 HL 90-5 column (Reversed phase, 250 mm×4.6 mm). […] The eluate was monitored at 280 nm and retention time of the reaction product was compared to retention time of the standard compounds (benzaldehyde, p-HO-benzaldehyde, vanillin, protocatechuic aldehyde, p-coumaric acid, caffeic acid, ferulic acid, coniferyl aldehyde). The results were quantified using LKB Bromma 2221 Integrator.
As a potential substrates for chain shortening enzyme the following compounds were tested: […]

[4] = system: V. planifolia embryo culture; test: Uptake of exogenously added vanillin and transformation to vanillyl alcohol in embryo culture; format: cell-based, Vanilla planifolia
Text: FIG. 3. Graph showing uptake of exogenously added vanillin and its transformation to vanillyl alcohol by vanillyl alcohol dehydrogenase in V. planifolia embryo culture. V(T)=vanillin in tissue; V(M)=vanillin in medium; VAL(T)=vanillyl alcohol in tissue; VAL(M)=vanillyl alcohol in medium.
Similarly, vanilla embryo culture that can be elicited by various elicitors to produce vanillin accumulates vanillyl alcohol as a final product. It is important to state at this stage that all the intermediates in the pathway are found mainly as glucosides.

## O=Cc1ccccc1 [Benzaldehyde]
[1]
  Activity with the compound as substrate, NADH: 0.33 nmoles · gfwt^−1 · min^−1
  Activity with the compound as substrate, NADPH: 0.18 nmoles · gfwt^−1 · min^−1

## O=Cc1ccc(O)cc1 [BA, p-hydroxybenzaldehyde]
[2]
  CA (p-coumaric acid) content of culture: 125 mg/100 g dry wt.
  HBA (p-hydroxybenzyl alcohol) content of culture: 10305 mg/100 g dry wt.
  PRO-ALD (3,4-dihydroxybenzaldehyde) content of culture: 5.8 mg/100 g dry wt.
  VN (vanillin) content of culture: 0.015 mg/100 g dry wt.
  VN ALC (vanillyl alcohol) content of culture: 12.3 mg/100 g dry wt.
[1]
  Activity with the compound as substrate, NADH: 0.32 nmoles · gfwt^−1 · min^−1
  Activity with the compound as substrate, NADPH: 0.14 nmoles · gfwt^−1 · min^−1

## COc1ccc(C=O)cc1O [4methoxy-3-hydroxybenzaldehyde]
[1]
  Activity with the compound as substrate, NADH: 0.00 nmoles · gfwt^−1 · min^−1
  Activity with the compound as substrate, NADPH: 0.00 nmoles · gfwt^−1 · min^−1

## OCc1ccc(O)cc1 [HBA, p-hydroxybenzyl alcohol]
[2]
  CA (p-coumaric acid) content of culture: 158 mg/100 g dry wt.
  HBA (p-hydroxybenzyl alcohol) content of culture: 13100 mg/100 g dry wt.
  PRO-ALD (3,4-dihydroxybenzaldehyde) content of culture: 4.6 mg/100 g dry wt.
  VN (vanillin) content of culture: 0.001 mg/100 g dry wt.
  VN ALC (vanillyl alcohol) content of culture: 9.6 mg/100 g dry wt.
[2]; tissue homogenates
  fate of HBA in tissue homogenates: rapidly metabolized to dihydroxybenzyl aldehyde

## COc1cc(/C=C/C=O)ccc1O [coniferyl aldehyde, 4-HO-3-metoxycinnamyl aldehyde]
[3]
  Result: conversion of the compound as substrate to the expected chain-shortened product: negative
[1]
  Activity with the compound as substrate, NADH: 0.00 nmoles · gfwt^−1 · min^−1

## COc1cc(C=O)ccc1O [Vn, vanillin]
[1]
  substrate preference of VAD: most preferred substrates
  Activity with the compound as substrate, NADH: 1.26 nmoles · gfwt^−1 · min^−1
  Activity with the compound as substrate, NADPH: 0.97 nmoles · gfwt^−1 · min^−1
[4]
  fate of compound applied to the growing medium of embryo culture: rapid uptake and reduction of the applied compound to vanillyl alcohol

## O=C(O)/C=C/c1ccccc1 [t-cinnamic acid]
[3]
  Result: conversion of the compound as substrate to the expected chain-shortened product: negative

## CCOc1cc(C=O)ccc1O [4-hydroxy-3-ethoxybenzaldehyde]
[1]
  Activity with the compound as substrate, NADH: 0.42 nmoles · gfwt^−1 · min^−1

Reference: patent US7226783B1, “Vanillin production” (David Michael & Co., Inc., priority 1997, dated 2007)
